Measurements: ChEMBL document CHEMBL1201862, “PubChem BioAssay data set” (2004)
The source made the active and inactive calls.

Legend:
Protein S100-A4 = Protein S100-A4 (Homo sapiens, UniProt P26447); test: S100A4-myosin IIA binding inhibitor potency, dose response, biochemical, fluorescence polarization, cherry-picked hits (AID 687001); format: functional
Insulin-degrading enzyme [1] = biological target: T1, Insulin-degrading enzyme (Homo sapiens, UniProt P14735); test: activators of endogenous IDE in HEK cells, dose response, cell-based, fluorescence polarization (AID 588439); format: functional
T1 sequence (P14735 whole entry): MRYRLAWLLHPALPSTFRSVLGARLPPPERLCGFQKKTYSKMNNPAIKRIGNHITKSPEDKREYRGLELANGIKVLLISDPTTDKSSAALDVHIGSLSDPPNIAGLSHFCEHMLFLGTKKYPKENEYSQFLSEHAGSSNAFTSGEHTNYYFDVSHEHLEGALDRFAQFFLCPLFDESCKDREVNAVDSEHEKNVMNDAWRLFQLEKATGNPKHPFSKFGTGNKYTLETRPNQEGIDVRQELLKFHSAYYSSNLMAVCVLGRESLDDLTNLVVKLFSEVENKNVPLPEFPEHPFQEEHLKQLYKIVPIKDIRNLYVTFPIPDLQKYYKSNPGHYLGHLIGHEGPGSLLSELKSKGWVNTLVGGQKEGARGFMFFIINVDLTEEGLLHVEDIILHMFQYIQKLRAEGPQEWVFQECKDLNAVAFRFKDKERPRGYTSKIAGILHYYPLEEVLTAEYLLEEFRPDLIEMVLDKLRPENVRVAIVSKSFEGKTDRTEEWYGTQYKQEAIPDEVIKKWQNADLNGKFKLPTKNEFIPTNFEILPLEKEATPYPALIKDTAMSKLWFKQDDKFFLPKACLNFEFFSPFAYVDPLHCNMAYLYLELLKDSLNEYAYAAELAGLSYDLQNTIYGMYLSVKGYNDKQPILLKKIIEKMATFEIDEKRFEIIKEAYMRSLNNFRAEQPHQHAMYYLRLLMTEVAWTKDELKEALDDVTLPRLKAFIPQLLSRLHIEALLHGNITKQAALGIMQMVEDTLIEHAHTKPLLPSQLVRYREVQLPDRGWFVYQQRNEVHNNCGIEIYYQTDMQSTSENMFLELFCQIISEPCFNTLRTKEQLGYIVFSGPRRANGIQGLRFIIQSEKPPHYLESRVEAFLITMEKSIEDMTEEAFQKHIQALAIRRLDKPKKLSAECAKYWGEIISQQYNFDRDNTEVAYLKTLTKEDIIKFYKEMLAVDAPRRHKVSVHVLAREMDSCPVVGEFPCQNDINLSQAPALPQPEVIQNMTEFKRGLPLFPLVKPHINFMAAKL

Insulin-degrading enzyme [2] = biological target: T1, Insulin-degrading enzyme; test: activators of recombinant IDE enzyme, dose response, counter-screen for IDE activator project, biochemical, fluorescence polarization (AID 588681)
ORF 73 = biological target: T2, ORF 73 (Human herpesvirus 8, UniProt O40947); test: inhibitors of C-LANA binding to LBS DNA, dose response, biochemical, fluorescence polarization, cherry-picked samples (AID 504725); parameters: species or system Human gammaherpesvirus 8;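 also: fluorescence polarization of a labeled DNA duplex reporting LANA DNA binding; potency is for inhibitors that block LANA binding to the DNA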
T2 sequence (O40947 whole entry): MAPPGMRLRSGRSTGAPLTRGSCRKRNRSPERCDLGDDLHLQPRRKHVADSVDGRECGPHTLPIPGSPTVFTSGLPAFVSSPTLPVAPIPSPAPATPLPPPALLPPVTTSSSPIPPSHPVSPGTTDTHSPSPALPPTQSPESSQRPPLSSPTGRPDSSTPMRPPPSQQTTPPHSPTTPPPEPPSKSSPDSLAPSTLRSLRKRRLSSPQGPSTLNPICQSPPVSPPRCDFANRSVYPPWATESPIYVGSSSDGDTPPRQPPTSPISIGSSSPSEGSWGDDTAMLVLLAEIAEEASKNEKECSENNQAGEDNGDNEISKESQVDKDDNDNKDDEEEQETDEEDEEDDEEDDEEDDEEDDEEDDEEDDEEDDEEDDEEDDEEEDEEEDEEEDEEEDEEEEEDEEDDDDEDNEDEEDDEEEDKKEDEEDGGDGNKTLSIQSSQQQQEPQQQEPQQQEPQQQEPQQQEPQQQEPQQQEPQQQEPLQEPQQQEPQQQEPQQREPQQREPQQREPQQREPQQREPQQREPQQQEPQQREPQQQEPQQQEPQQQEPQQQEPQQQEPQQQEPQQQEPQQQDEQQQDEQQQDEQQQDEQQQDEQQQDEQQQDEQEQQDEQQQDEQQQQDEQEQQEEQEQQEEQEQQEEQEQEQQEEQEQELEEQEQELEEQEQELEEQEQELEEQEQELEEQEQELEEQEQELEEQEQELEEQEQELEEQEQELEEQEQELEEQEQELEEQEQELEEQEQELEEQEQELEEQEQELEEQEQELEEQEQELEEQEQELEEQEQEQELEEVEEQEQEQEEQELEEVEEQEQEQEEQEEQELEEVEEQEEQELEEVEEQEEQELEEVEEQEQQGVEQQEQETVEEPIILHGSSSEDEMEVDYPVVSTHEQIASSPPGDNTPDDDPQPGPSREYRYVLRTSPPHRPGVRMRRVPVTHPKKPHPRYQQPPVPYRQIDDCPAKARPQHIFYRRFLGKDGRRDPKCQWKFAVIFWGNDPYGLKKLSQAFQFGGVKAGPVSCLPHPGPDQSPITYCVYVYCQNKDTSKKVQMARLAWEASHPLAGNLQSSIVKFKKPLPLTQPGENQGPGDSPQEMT

HEK293 [3] = test: optical interference in Abeta FP readout, dose response, artefact control for IDE activator project, biochemical, fluorescence polarization (AID 588442); format: functional, cell-based; details: Homo sapiens
HeLa = test: HeLa cell cytotoxicity, dose response, cytotoxicity control, 24 h, cherry-picked samples (AID 504726); format: functional, cell-based; details: Homo sapiens;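 also: potency for cytotoxicity as loss of luminescence signal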
HEK293 [4] = test: HEK cell cytotoxicity by LDH release, dose response, cytotoxicity control for IDE activator project, fluorescence, HEK cells (AID 588440); format: functional, cell-based; details: Homo sapiens;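 also: cytotoxicity by LDH release measuring loss of membrane integrity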
[5] = biological target: Oxysterols receptor LXR-beta (Homo sapiens, UniProt P55055); format: functional, cell-based;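 also: agonist activity at LXR measured by a cell-based luminescence readout across a dose range, run as a counterscreen for daf-12 agonists; HEK293 cells with Gal4-LXR fusion and GAL4-driven luciferase reporter; potency for activation of Gal4-LXR reporter so compounds are agonists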
H9c2 = test: cells; format: functional, cell-based; details: Rattus norvegicus, H9c2, Myocardium;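 also: confirmatory concentration-response retest of ultra-high-throughput screening hits for modulation of myocardial damage; cell death induced by hydrogen peroxide oxidative stress; compound pretreatment for 60 min then peroxide exposure for 2 h; potency is for protecting the cells against peroxide damage rather than for killing them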
Albumin = Albumin (Bos taurus, UniProt P02769); test: Counterscreen for inhibitors of T-cell receptor (TCR)-CD3 interaction: Fluorescence-based biochemical high throughput dose response assay to identify inhibitors of T-cell receptor (TCR)-CD3 interaction using a TAMRA-labeled BSA probe.; format: functional
[6] = LMP1-driven NF-kB reporter inhibition, dose response, cell-based, luciferase reporter, luminescence, dry powder, set 2 (AID 624376); format: functional
[7] = HEK293 cell viability, dose response, counter-screen for EBV LMP1 inhibitor project, dry powder, set 2 (AID 624374); format: functional
[8] = biological target: Tyrosyl-DNA phosphodiesterase 2 (Homo sapiens, UniProt O95551); test: human TDP2 enzyme inhibitors, dose response, biochemical, epi absorbance, IC50 (AID 743297)
Protein RecA = biological target: T3, Protein RecA (Mycobacterium tuberculosis, UniProt P9WHJ3); test: Fluorescence Cell-Free Homogeneous Dose Retest to Identify Inhibitors of RecA-Intein Splicing Activity. [Related pubchem assays (depositor defined):AID2097, AID2223, AID489010, AID492950]; format: functional
T3 sequence (P9WHJ3 whole entry): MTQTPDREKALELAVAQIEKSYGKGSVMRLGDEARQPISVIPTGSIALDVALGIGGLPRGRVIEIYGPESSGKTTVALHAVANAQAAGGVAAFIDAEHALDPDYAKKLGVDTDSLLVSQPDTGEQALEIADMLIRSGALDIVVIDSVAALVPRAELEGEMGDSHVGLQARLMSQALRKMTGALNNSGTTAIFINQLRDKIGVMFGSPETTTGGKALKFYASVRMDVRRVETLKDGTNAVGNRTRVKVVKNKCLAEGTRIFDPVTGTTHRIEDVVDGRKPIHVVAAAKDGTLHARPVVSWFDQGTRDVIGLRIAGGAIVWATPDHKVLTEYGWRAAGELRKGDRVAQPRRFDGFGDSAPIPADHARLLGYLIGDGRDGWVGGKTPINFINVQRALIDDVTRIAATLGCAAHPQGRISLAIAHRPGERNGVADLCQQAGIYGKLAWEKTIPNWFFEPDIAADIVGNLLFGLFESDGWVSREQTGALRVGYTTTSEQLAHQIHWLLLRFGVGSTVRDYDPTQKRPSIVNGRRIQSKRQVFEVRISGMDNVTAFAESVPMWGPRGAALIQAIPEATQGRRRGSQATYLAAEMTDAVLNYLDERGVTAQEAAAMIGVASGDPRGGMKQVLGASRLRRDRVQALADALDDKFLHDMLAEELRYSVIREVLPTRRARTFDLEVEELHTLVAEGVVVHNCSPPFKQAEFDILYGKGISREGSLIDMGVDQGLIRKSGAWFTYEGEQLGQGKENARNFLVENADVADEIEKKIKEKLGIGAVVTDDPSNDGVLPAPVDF

[9] = biological target: T4, Replicative DNA helicase DnaB (Mycobacterium tuberculosis, UniProt P9WMR3); test: DnaB intein splicing inhibitors, dose response, biochemical, cell-free fluorescence (AID 449749); format: functional
T4 sequence (P9WMR3 whole entry): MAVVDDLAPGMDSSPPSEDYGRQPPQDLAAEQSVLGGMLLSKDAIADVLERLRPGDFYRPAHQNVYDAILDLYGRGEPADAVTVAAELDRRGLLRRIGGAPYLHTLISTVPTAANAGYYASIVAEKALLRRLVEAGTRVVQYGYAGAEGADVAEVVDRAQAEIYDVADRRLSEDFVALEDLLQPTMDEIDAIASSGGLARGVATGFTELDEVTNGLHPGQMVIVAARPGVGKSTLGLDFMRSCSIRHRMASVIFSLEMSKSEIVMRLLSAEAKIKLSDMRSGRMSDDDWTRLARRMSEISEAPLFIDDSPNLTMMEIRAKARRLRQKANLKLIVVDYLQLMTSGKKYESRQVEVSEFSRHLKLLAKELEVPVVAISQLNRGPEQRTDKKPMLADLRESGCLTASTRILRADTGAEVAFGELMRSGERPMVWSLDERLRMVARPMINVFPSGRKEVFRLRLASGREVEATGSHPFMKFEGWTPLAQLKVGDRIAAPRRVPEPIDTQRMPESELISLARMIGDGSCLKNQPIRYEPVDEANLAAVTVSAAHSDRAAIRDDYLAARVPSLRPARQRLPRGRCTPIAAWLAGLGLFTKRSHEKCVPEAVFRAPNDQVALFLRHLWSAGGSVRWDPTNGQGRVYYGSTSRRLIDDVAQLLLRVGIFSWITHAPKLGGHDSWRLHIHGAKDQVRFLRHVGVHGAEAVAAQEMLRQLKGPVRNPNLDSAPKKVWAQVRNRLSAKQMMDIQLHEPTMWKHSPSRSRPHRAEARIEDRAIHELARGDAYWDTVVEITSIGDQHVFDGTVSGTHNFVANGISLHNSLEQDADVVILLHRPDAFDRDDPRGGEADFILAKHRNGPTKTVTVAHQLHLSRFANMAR

[10] = Late stage assay provider results from the probe development effort to identify selective inhibitors of heat shock protein 90 (HSP90): Absorbance-based cell proliferation assay in SKBR3 cells.; format: functional; details: SK-BR-3
[11] = Late stage assay provider results from the probe development effort to identify selective inhibitors of heat shock protein 90 (HSP90): Absorbance-based cell proliferation assay in MCF7 cells.; format: functional
[12] = A Cell-Based Confirmatory Screen for Compounds that Inhibit VEEV, TC-83 (8).; format: functional
[13] = Keap1 Kelch-Nrf2 peptide binding inhibitors, dose response, biochemical, fluorescence polarization, dry powder, set 3 (AID 651806)
[14] = biological target: Metabotropic glutamate receptor 3 (Rattus norvegicus, UniProt P31422); test: mGlu3 negative allosteric modulator potency, dose response, HEK/GIRK cells, thallium flux, rat (AID 651839); format: functional
Sequence of Metabotropic glutamate receptor 3 (P31422 whole entry): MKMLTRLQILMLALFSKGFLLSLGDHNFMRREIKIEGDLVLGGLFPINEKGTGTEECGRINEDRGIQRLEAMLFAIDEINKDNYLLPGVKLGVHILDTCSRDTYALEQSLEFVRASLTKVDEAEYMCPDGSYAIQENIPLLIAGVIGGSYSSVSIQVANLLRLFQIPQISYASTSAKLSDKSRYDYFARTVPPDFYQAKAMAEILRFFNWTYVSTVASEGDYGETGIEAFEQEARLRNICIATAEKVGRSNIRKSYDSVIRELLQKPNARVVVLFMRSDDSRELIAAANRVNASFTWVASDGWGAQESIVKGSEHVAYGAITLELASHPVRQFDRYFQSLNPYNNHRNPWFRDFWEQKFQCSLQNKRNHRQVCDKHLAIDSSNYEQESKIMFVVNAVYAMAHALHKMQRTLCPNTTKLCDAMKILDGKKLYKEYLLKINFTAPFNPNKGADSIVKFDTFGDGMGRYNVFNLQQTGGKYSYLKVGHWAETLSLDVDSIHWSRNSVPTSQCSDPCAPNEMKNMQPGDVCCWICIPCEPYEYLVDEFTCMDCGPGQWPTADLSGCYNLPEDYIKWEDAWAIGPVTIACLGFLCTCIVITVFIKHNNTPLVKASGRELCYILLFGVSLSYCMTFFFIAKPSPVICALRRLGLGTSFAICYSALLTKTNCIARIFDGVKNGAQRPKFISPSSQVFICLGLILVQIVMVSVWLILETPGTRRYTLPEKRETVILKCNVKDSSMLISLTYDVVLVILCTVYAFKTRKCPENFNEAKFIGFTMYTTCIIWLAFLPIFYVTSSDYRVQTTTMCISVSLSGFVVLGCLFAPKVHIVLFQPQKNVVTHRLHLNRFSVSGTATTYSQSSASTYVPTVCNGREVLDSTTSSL

Sequence of Protein S100-A4 (P26447 whole entry): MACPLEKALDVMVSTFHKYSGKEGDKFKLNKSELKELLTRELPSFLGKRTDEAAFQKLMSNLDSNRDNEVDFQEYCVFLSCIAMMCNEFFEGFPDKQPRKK
Sequence of Oxysterols receptor LXR-beta (P55055 whole entry, the tested form may be a part): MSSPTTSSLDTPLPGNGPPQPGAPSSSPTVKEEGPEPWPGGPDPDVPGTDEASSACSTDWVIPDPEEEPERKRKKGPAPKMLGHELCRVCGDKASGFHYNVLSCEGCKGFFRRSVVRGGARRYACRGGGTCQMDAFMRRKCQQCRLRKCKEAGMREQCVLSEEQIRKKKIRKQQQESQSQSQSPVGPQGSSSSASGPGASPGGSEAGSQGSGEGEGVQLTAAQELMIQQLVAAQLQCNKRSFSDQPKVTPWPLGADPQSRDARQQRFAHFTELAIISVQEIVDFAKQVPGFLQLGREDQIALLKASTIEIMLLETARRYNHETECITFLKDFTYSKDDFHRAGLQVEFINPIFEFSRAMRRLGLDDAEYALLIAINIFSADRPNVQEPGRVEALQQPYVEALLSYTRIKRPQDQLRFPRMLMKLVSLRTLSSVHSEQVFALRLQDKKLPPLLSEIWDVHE
Sequence of Tyrosyl-DNA phosphodiesterase 2 (O95551 whole entry): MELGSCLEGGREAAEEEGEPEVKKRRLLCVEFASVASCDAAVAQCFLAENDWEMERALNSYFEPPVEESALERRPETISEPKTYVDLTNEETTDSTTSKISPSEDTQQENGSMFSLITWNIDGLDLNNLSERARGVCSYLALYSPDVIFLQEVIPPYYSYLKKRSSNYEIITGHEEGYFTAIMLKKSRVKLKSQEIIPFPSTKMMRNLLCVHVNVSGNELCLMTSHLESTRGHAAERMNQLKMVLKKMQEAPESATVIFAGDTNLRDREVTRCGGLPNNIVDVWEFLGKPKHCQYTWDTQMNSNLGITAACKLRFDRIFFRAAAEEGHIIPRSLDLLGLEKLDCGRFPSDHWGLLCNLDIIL
Sequence of Albumin (P02769 whole entry): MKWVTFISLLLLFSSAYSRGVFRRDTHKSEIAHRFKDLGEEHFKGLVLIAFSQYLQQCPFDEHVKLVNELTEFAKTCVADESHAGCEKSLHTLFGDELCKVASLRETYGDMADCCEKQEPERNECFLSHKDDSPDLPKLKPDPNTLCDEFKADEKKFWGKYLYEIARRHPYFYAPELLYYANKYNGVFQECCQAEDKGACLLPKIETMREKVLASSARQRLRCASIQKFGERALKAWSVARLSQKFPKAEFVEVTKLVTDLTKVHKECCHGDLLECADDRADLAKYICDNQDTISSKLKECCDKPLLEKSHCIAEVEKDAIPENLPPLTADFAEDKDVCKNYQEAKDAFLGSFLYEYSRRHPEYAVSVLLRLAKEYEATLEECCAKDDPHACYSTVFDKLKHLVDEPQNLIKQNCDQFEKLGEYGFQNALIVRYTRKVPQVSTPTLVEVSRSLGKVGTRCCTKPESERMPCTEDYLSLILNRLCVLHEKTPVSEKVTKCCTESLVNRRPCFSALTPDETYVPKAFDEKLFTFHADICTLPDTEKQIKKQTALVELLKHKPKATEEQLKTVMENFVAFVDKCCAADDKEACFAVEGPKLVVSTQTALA

COc1ccc2c3c(cccc13)C(=O)CC2
AC50 (Protein S100-A4): 7.21 µM (active)
EC50 (Insulin-degrading enzyme [1]): > 54.7 µM (inactive)
EC50 (Insulin-degrading enzyme [2]): > 54.7 µM (inactive)
AC50 (ORF 73): 6.76 µM (active)
EC50 (HEK293 [3]): > 18.6 µM (inactive)
AC50 (HeLa): 31.7 µM (active)
IC50 (HEK293 [4]): > 89.2 µM (inactive)

O=C(O)c1cc(-c2cccs2)[nH]n1
EC50 [5]: > 67.6 µM (inactive)

COC(=O)Cn1/c(=N/C(=O)c2cc(-c3cccs3)nc3ccccc23)sc2cc(S(N)(=O)=O)ccc21
IC50 (H9c2): 28.2 µM (active)
IC50 (Albumin): > 94.1 µM (inactive)

CCC(=O)N1Cc2cc(C(=O)Nc3nccs3)nc(-c3cccc(-c4ccccc4OC)c3)c2[C@H]1CCO
AbsAC35 [6]: 49.1 µM
AbsAC35 [7]: 247.5 µM

Cc1cc(=O)n(C2CCS(=O)(=O)C2)[nH]1 (stereo not given)
IC50 [8]: > 128 µM (inactive)
EC50 (Protein RecA): 1.91 µM (active)
AC50 [9]: 3.43 µM (active)

COc1ccccc1NC(=O)c1cc(=O)c(OC)c[nH]1
IC50 [10]: > 100 µM (inactive)
IC50 [11]: > 100 µM (inactive)

CN1CCN(C)/C(=N/c2ccc(F)cc2C(=O)Nc2ccccc2)C1
IC50 [12]: 6.39 µM (active)

O=C(O)Cc1ccccc1C(=O)N1CCc2ccccc2[C@H]1CN1C(=O)c2ccccc2C1=O
AC50 [13]: 61.4 µM (active)

COc1ccc(C#Cc2ccc(C(=O)N3CCC(OC)C3)cc2)cc1 (stereo not given)
IC50 [14]: 10.7 µM (active)
